Data published in patent publication US9504676B2, “Molecules inhibiting a metabolic pathway involving the Syk protein tyrosine kinase and method for identifying said molecules” (CENTRE NATIONAL DE LA RECHERCHE SCIENTIFIQUE, priority 2008, dated 2016).
pIC50: −log10 of the molar value.

Target: T1, murine Syk tyrosine kinase protein (GST:Syk 6-242) (Mus musculus, UniProt P48025)
T1 construct: made in house
Assay: ADA method: displacement of the binding of scFv G4G11 with Syk (ELISA)
Details: for inhibition at 10 µM: small molecules at 10 μM, scFv G4G11 100 nM, read-out: In vit. inhib.: mean inhibition % of the binding of scFv G4G11 with Syk in the ADA method
How it was run: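 GST:Syk 6-242 (murine) was immobilised at 10 μg ml^−1 and pre-incubated 1 h at ambient temperature with compounds at 10 μM final in PBS. scFv G4G11 was then added at 100 nM for 1 h. Bound scFv was detected via its C-terminal c-myc tag with HRP-9E10, and % inhibition was taken from signals with versus without compound.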

Q: Which inhibition at 10 µM does the source give for `CCOC(=O)C1=C(C)NC2=C(C(=O)c3ccccc32)C1c1cc(Br)ccc1OCC(=O)O` (stereo not drawn) [Molecule 3, {4-bromo-2-[3-(ethoxy carbonyl)-2-methyl-5-oxo-4,5-dihydro-1H-indeno[1,2-b]pyridin-4-yl]phenoxy} acetic acid] here?
A: 81%

Q: For `O=C(Nc1ccccc1)c1ccc(NCCN2CCOCC2)c(S(=O)(=O)N2CCOCC2)c1` [Molecule 46, 4-{[2-(4-morpholinyl)ethyl]amino}-3-(4-morpholinylsulphonyl)-N-phenylbenzamide], which inhibition at 10 µM is on record?
A: 48%

Q: `C=CCn1c(SCC(=O)Nc2cccc(OC)c2)nnc1C(C)NC(=O)c1ccccc1` (stereo not drawn) [Molecule 66, N-{1-[4-allyl-5-({2-[(3-methoxyphenyl)amino]-2-oxoethyl}thio)-4H-1,2,4-triazol-3-yl]ethyl} benzamide] was tested. Which inhibition at 10 µM did it give?
A: 35%

Q: `O=C(C1=C(O)C(=O)N(Cc2cccnc2)C1c1cccc(Oc2ccccc2)c1)c1ccc(Cl)cc1` (stereo not drawn) [Molecule 1, 4-(4-chlorobenzoyl)-3-hydroxy-5-(3-phenoxyphenyl)-1-(3-pyridinylmethyl)-1,5-dihydro-2H-pyrrol-2-one] was tested. Which inhibition at 10 µM did it give?
A: 86.5%

Q: How did the inhibition at 10 µM turn out when `COc1cccc(C2C(C(=O)c3ccc(C)cc3)=C(O)C(=O)N2CCCN2CCOCC2)c1` (stereo not drawn) [Molecule 4, 3-hydroxy-5-(3-methoxyphenyl)-4-(4-methylbenzoyl)-1-[3-(4-morpholinyl)propyl]-1,5-dihydro-2H-pyrrol-2-one] was run?
A: 79.5%

Q: `COC(=O)c1ccccc1-c1ccc(/C=C2/SC(=S)N(Cc3ccccc3)C2=O)o1` [Molecule C-13, methyl 2-{5-[(3-benzyl-4-oxo-2-thioxo-1,3-thiazolidin-5-ylidene)methyl]-2-furyl}benzoate] was tested. Which pIC50 (ADA method, read-out: estimated IC50 for competing with the binding of scFv G4G11 with Syk) did it give?
A: ~5.40

Q: And the inhibition at 10 µM?
A: 81%

Q: With `CCOC(=O)c1ccc(NC(=O)CSc2nnc(-c3ccco3)c(-c3ccco3)n2)cc1` [Molecule 54, ethyl 4-({[(5,6-di-2-furyl-1,2,4-triazin-3-yl)thio]acetyl}amino)benzoate] as the molecule, how does the inhibition at 10 µM read?
A: 43%

Q: For `CCOC(=O)c1sc(N2C(=O)C(O)=C(C(=O)c3ccc(F)cc3)C2c2ccc(C)cc2)nc1C` (stereo not drawn) [Molecule 10, ethyl 2-[3-(4-fluorobenzoyl)-4-hydroxy-2-(4-methylphenyl)-5-oxo-2,5-dihydro-1H-pyrrol-1-yl]-4-methyl-1,3-thiazole-5-carboxylate], which inhibition at 10 µM is on record?
A: 71%

Q: For `CCOC(=O)c1ccc(N2C(=O)C(O)=C(C(=O)c3ccccc3)C2c2ccc(ON)cc2OC)cc1` (stereo not drawn) [Molecule 6], which inhibition at 10 µM is on record?
A: 73.5%

Q: For `COc1ccc(S(=O)(=O)N(CCc2ccccc2)CC(=O)Nc2ccc(C(N)=O)cc2)cc1` [Molecule 18], which inhibition at 10 µM is on record?
A: 63%

Q: How did the inhibition at 10 µM turn out when `O=C(NCc1nnc(NCc2nc3ccccc3c(=O)[nH]2)n1-c1ccccc1)c1ccccc1F` [Molecule 29] was run?
A: 53.5%

Q: For `C=CCn1c(CNC(=O)c2cccc(C)c2)cnc1SCC(=O)Nc1cccc(C(=O)OC(C)C)c1` [Molecule 75], which inhibition at 10 µM is on record?
A: 27%

Q: For `CCOc1ccc(NC(=O)CC2C(=O)N(c3ccc(OC)cc3)C(=S)N2CCN2CCOCC2)cc1` (stereo not drawn) [Molecule 84, N-(4-ethoxyphenyl)-2-{1-(4-methoxyphenyl)-3-[2-(4-morpholinyl)ethyl]-5-oxo-2-thioxo-4-imidazolidinyl}acetamide], which inhibition at 10 µM is on record?
A: 19%

Q: Which inhibition at 10 µM does the source give for `Cc1cc(C(=O)Nc2ccccc2C(=O)O)ccc1NC(=O)COc1ccc(C(C)C)cc1` [Molecule 49, 2-[(4-{[(4-isopropylphenoxy)acetyl]amino}-3-methylbenzoyl)amino] benzoic acid] here?
A: 46.5%

Q: `COc1ccc(C2C(C(=O)c3cccs3)=C(O)C(=O)N2CCCn2ccnc2)c(OC)c1` (stereo not drawn) [Molecule 2] was tested. Which inhibition at 10 µM did it give?
A: 81%

Q: `CCn1c(CCC(=O)c2ccc(Cl)cc2)nnc1SCC(=O)Nc1ccc(Br)c(C)c1C` [Molecule 82] was tested. Which inhibition at 10 µM did it give?
A: 20%

Q: With `CCOC(=O)c1ccc(NC(=O)CC2C(=O)N(c3ccc(Cl)cc3)C(=S)N2Cc2cccnc2)cc1` (stereo not drawn) [Molecule 61] as the molecule, how does the inhibition at 10 µM read?
A: 39.5%

Q: How did the inhibition at 10 µM turn out when `COc1cc(-c2nnc(SCC(=O)Nc3ccc(Cl)cc3)n2CCc2ccccc2)cc(OC)c1OC` [Molecule 59] was run?
A: 40%

Q: For `COc1ccccc1C(=O)Nc1ccc(-c2nnc(SCC(=O)c3ccccc3)n2C)cc1` [Molecule 15, 2-methoxy-N-(4-(4-methyl-5-[(2-oxo-2-phenylethyl)thio]-4H-1,2,4-triazol-3-yl)phenyl)benzamide], which inhibition at 10 µM is on record?
A: 67.5%

Q: How did the inhibition at 10 µM turn out when `COc1ccc(C)cc1NC(=O)c1ccc(CN2CCC(Cc3ccccc3)CC2)cc1` [Molecule 17, 4-[(4-benzyl-1-piperidinyl)methyl}-N-(2-methoxy-5-methylphenyl)benzamide] was run?
A: 63%
